Data published in US20120184583A1, “MODULATORS OF ATP-BINDING CASSETTE TRANSPORTERS” (VERTEX PHARMACEUTICALS INCORPORATED, priority 2003, published 2012).

Target: T1, ΔF508-CFTR stably expressed in NIH3T3 cells (Homo sapiens, UniProt P13569, DEL508-508)
T1 construct: expressed in transfected cells
Assay: Membrane potential optical (FRET/VIPR) assay for ΔF508-CFTR potentiation
Type: cell-based
Settings: NIH3T3, read-out: % Efficacy (relative modulating efficacy in comparison with genistein), normalized to peak genistein response
Source text: Membrane potential optical methods for assaying ΔF508-CFTR potentiation properties of compounds.
These voltage sensitive assays are based on the change in fluorescence resonant energy transfer (FRET) between the membrane-soluble, voltage-sensitive dye, DiSBAC2(3), and a fluorescent phospholipid, CC2-DMPE, which is attached to the outer leaflet of the plasma membrane and acts as a FRET donor. Changes in membrane potential (Vm) cause the negatively charged DiSBAC2(3) to redistribute across the plasma membrane and the amount of energy transfer from CC2-DMPE changes accordingly. The changes in fluorescence emission were monitored using VIPR™ II, which is an integrated liquid handler and fluorescent detector designed to conduct cell-based screens in 96- or 384-well microtiter plates.
To identify potentiators of ΔF508-CFTR, a double-addition HTS assay format was developed (FIG. 1A). During the first addition, a Cl^−-free medium with or without test compound was added to each well. After 22 sec, a second addition of Cl^−-free medium containing 2-10 μM forskolin was added to activate ΔF508-CFTR. The extracellular Cl^− concentration following both additions was 28 mM, which promoted Cl^− efflux in response to ΔF508-CFTR activation and the resulting membrane depolarization was optically monitored using the FRET-based voltage-sensor dyes. The double-addition format has several advantages. First, it enables separation of compounds that act independently of forskolin-activated ΔF508-CFTR. Second, it allows compounds that act from the cytoplasmic surface of the channel to cross the plasma membrane and take effect. Lastly, fluorescent changes that arise from test compound addition alone can be identified.
High-throughput assay format for identifying potentiators of ΔF508-CFTR stably expressed in NIH3T3 cells.
FIG. 1A: Double-addition assay format in which Cl^−-free medium was added with or without the test compound prior to forskolin addition. The cells were incubated at 27° C. for 16-24 hr prior to use.
• Bath Solution #1: (in mM)NaCl 160, KCl 4.5, CaCl2 2, MgCl2 1, HEPES 10, pH 7.4 with NaOH. • Chloride-free bath solution: Chloride salts in Bath Solution #1 are substituted with gluconate salts. • CC2-DMPE: Prepared as a 10 mM stock solution in DMSO and stored at −20° C. • DiSBAC2(3): Prepared as a 10 mM stock in DMSO and stored at −20° C.
NIH3T3 mouse fibroblasts stably expressing ΔF508-CFTR are used for optical measurements of membrane potential. The cells are maintained at 37° C. in 5% CO2 and 90% humidity in Dulbecco's modified Eagle's medium supplemented with 2 mM glutamine, 10% fetal bovine serum, 1×NEAA, β-ME, 1×pen/strep, and 25 mM HEPES in 175 cm^2 culture flasks. For all optical assays, the cells were seeded at 30,000/well in 384-well matrigel-coated plates and cultured for 2 hrs at 37° C. before culturing at 27° C. for 24 hrs.

T1 sequence (P13569 with tags, fused parts or gaps DEL508-508): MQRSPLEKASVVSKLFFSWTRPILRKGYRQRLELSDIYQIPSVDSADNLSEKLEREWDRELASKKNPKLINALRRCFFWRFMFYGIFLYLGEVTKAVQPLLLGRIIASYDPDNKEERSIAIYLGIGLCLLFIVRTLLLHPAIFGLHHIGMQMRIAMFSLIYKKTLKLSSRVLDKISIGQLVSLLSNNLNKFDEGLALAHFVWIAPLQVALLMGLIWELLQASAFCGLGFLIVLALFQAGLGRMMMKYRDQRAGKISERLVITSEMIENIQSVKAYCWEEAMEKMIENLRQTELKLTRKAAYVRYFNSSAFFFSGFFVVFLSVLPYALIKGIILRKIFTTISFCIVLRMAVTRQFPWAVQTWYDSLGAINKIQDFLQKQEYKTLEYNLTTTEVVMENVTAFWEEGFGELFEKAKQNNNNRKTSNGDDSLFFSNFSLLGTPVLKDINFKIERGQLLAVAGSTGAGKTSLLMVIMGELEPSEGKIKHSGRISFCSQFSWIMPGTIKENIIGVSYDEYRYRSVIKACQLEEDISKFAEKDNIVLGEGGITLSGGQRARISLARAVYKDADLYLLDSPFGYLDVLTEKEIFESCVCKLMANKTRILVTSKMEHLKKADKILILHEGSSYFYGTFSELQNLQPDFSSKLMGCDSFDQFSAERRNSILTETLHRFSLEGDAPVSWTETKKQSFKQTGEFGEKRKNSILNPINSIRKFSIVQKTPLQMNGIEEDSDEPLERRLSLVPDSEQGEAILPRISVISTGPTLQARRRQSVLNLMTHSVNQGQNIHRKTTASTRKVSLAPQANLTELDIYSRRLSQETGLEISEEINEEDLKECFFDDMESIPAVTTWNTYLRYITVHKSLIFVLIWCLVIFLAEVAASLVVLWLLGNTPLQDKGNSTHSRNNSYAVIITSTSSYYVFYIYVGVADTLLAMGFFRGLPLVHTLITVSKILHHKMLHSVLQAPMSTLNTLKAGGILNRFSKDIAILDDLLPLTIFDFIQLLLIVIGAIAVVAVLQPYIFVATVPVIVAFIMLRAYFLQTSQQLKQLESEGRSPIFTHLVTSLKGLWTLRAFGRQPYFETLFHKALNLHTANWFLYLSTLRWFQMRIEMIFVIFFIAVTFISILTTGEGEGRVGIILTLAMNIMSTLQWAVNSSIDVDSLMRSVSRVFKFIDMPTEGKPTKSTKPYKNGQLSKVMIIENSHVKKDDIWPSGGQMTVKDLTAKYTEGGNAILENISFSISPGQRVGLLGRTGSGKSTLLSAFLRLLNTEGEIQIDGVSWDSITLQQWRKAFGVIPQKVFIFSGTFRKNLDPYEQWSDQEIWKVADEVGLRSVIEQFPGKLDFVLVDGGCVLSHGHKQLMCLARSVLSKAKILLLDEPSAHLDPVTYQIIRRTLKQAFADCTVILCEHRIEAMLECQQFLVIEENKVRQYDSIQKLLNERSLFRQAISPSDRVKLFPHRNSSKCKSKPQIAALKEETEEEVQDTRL

Compound	Emax [%]
FC(F)(F)Oc1ccc(-c2cc(-c3ccccc3)n[nH]2)cc1 [I-16]	35 to 75
Cc1ccc(O)c(-c2cc(-c3ccccc3C#N)n[nH]2)c1 [IA-30]	35 to 75
Fc1ccccc1-c1cc(-c2ccccc2F)[nH]n1 [I-6]	35 to 75
Cc1ccc(O)c(-c2cc(-c3cccnc3)n[nH]2)c1 [IA-27, 4-Methyl-2-(5-pyridin-3-yl-1H-pyrazol-3-yl)phenol]	35 to 75
O=[N+]([O-])c1ccccc1-c1cc(-c2cc(F)ccc2O)[nH]n1 [IA-20]	> 75
COc1ccc(-c2cc(-c3ccccc3O)n[nH]2)cc1OC [IA-1]	35 to 75
Cc1ccc(O)c(-c2cc(-c3ccc(C(F)(F)F)c(C)c3)n[nH]2)c1 [IA-17]	35 to 75
Fc1ccccc1-c1cc(-c2ccc3c(c2)OC(F)(F)O3)[nH]n1 [I-10]	35 to 75
Cc1ccc(O)c(-c2cc(-c3cccs3)n[nH]2)c1 [IA-28]	> 75
Cc1cccc(-c2cc(-c3ccccc3)n[nH]2)c1 [I-19]	35 to 75
Oc1ccc(F)cc1-c1cc(-c2ccccc2C(F)(F)F)[nH]n1 [IA-6]	> 75
Cc1cc(O)c(-c2cc(-c3ccccc3)n[nH]2)cc1C [IA-36]	35 to 75
COc1ccc(O)c(-c2cc(-c3ccccc3C(F)(F)F)n[nH]2)c1 [IA-16]	35 to 75
Cc1ccc(O)c(-c2cc(-c3ccccc3[N+](=O)[O-])[nH]n2)c1 [IA-5]	> 75
Fc1ccccc1-c1cc(-c2ccccc2)n[nH]1 [I-4]	35 to 75
COc1ccc(-c2cc(-c3cc(C)ccc3O)n[nH]2)cc1 [IA-22]	35 to 75
CC(C)c1ccc(O)c(-c2cc(-c3ccccc3)[nH]n2)c1 [IA-26]	> 75
Oc1ccccc1-c1cc(-c2ccc(F)cc2)[nH]n1 [IA-8]	35 to 75
COc1ccc(O)c(-c2cc(-c3ccccc3)[nH]n2)c1 [IA-18]	35 to 75
COc1ccc(-c2cc(-c3ccccc3O)n[nH]2)cc1 [IA-11]	35 to 75
Oc1ccc(Cl)cc1-c1cc(-c2ccccc2)[nH]n1 [IA-19]	35 to 75
Fc1ccccc1-c1cc(-c2ccc(OC(F)(F)F)cc2)[nH]n1 [I-17]	35 to 75
Oc1ccc(F)cc1-c1cc(-c2ccccc2)n[nH]1 [IA-21]	35 to 75

The remaining lines, values ahead:

Emax [%]	Compound
35 to 75	O=[N+]([O-])c1ccc(-c2cc(-c3cc(C(F)(F)F)ccc3O)[nH]n2)cc1 [IA-114]
35 to 75	Cc1ccc(-c2cc(-c3cccc(F)c3)[nH]n2)c(O)c1 [IA-106]
35 to 75	Cc1ccc(O)c(-c2cc(-c3ccncc3)n[nH]2)c1 [IA-93]
< 35	Cc1ccc(-c2cc(-c3ccc(F)cc3)[nH]n2)c(O)c1 [IA-63]
35 to 75	Cc1ccc(O)c(-c2cc(-c3c(F)ccc(C)c3F)n[nH]2)c1 [IA-56]
35 to 75	CSc1ncccc1-c1cc(-c2ccccc2O)n[nH]1 [IA-37]
35 to 75	Cc1ccc(O)c(-c2cc(-c3ccc(F)cc3)[nH]n2)c1 [IA-104]
35 to 75	Cc1cc(-c2cc(-c3cc(F)ccc3O)n[nH]2)c(C(F)(F)F)o1 [IA-92]
< 35	Cc1ccc(O)c(-c2cc(-c3ccc(C(F)(F)F)cc3)[nH]n2)c1 [IA-103]
> 75	Cc1ccc(O)c(-c2cc(-c3ccccc3OC(F)(F)F)n[nH]2)c1 [IA-45]
35 to 75	Oc1ccccc1-c1cc(-c2ccccc2Cl)[nH]n1 [IA-68]
35 to 75	COc1ccc(-c2cc(-c3cc(C)ccc3O)n[nH]2)c(F)c1 [IA-99]
35 to 75	COc1ccccc1-c1cc(-c2cc(C)ccc2O)[nH]n1 [IA-94]
> 75	O=[N+]([O-])c1ccccc1-c1cc(-c2cc(Cl)ccc2O)n[nH]1 [IA-52]
35 to 75	Cc1cc(C)c(-c2cc(-c3cc(C)ccc3O)[nH]n2)c(C)c1 [IA-85]
35 to 75	Cc1ccc(O)c(-c2cc(C(Cc3ccccc3)NS(=O)(=O)c3cccc4ccccc34)n[nH]2)c1 (centres unmarked) [IA-91]
35 to 75	Cc1ccc(O)c(-c2cc(-c3nc(C)c(-c4ccc5c(c4)OCC5)s3)n[nH]2)c1 [IA-95]
35 to 75	Cc1ccc(O)c(-c2cc(-c3ccccc3C(F)(F)F)n[nH]2)c1 [IA-41]
